According to US10501518B2 (priority 2013, dated 2019):
Starred links: 1 amine or outer side, 2 acyl side, 3 side chain; linkers in the order of their positions; H or OH if unused. Non-standard residues stand in square brackets, D forms with d. Residues, ends and D or L forms follow the SMILES beside them. No end group written: not given here. *: point of attachment. NH(1S,2S-2-CONH2-cPent) = NC(=O)[C@H]1CCC[C@@H]1N*; X12 = O=C([C@H]1CCC[C@@H]1N[*:1])[*:2]; X13 = O=C([C@H]1CNC[C@@H]1N[*:1])[*:2]; ACPC(1S,2S) = N[C@H]1CCC[C@@H]1C(=O)*; hArg = N=C(N)NCCCC[C@H](N)C(=O)O; Aib = CC(C)(N)C(=O)O

Legend:
PTHR1 = molecular target: T1, PTHR1 (Homo sapiens, UniProt Q03431); assay: Inhibition of PTH-induced PTHR1 cAMP signaling by bPTH(7-34) analogs; settings: Table 18; [Inhibitor] = 1 μM
T1 sequence (Q03431 27-593): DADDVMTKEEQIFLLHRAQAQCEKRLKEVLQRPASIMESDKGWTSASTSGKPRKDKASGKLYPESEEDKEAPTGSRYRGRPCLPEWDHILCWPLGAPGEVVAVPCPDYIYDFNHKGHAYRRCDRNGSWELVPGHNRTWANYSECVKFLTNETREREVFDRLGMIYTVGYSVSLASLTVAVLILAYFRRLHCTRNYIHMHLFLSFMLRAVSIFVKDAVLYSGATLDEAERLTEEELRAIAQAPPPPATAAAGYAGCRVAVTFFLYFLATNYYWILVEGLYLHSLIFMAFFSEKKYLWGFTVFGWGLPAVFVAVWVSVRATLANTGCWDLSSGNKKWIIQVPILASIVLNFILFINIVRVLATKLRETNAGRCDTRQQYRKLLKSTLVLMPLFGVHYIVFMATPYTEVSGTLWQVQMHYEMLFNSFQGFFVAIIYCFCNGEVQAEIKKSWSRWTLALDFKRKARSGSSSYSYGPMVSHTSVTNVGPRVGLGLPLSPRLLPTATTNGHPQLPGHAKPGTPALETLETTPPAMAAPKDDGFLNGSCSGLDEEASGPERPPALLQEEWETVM

[1] = Stability in simulated gastric fluid; type: in vitro ADME
[2] = mouse, in vivo; cited from earlier work
[3] = Calcemic response in mice after subcutaneous injection; type: in vivo; settings: 20 nmol/kg
Description: Compound concentrations were determined by submitting plasma to a cAMP GloSensor assay, quantification of luminescence readout, and conversion to peptide concentration via standard curve. […] See also FIGS. 12A, 12B and 12C.
Mice (C57BL/6, male, age 9-12 weeks) were treated in accordance with the ethical guidelines adopted by Massachusetts General Hospital. […] Blood was withdrawn just prior to injection (t=0) or at times thereafter. Tail vein blood was collected and immediately used for analysis. Blood Ca^2+ concentration was measured with a Chiron Diagnostics model 634 Ca^2+/pH analyzer.

PTHR = molecular target: T2, PTHR (Homo sapiens, UniProt Q03431); assay: cAMP induction potency, N-terminal modifications and cyclic constraints (Tables 9, 10, 13); type: cell-based; settings: Table 9
T2 construct: expressed in transfected cells
T2 sequence (Q03431 27-593): T1 sequence (Q03431 27-593)
Description: For cAMP dose-response assays, monolayers of confluent HEK 293 cells were pre-incubated with buffer containing d-luciferin (0.5 mM) in 96 well plates at room temperature until a stable baseline level of luminescence was established (30 min). Varying concentrations of agonist were then added, and the time course of luminescence response was recorded using a Perkin Elmer plate reader following α/β-peptide addition.

| EC50(+)inhibitor/EC50(−)inhibitor (PTHR1) | Compound | other results |
| --- | --- | --- |
| 1.60 | LMHNLGKHLNSMERVEWLRKKLQDVHNF-NH2 [hPTH(7-34), reference compound] | – |
| 60.12 | FMHNLWKHLSSMERVEWLRKKLQDVHNF-NH2 [bPTH(7-34)dTrp12, reference compound] | – |

More lines, now with the values behind:

| Compound | EC50(+)inhibitor/EC50(−)inhibitor (PTHR1) | other results |
| --- | --- | --- |
| FMHNLWKWLSSMERVEWLRKKLQDVHNF-NH2 [D6 bPTH(7-34) dTrp12] | 16.49 | – |
| XMHNLWKWLSSMERVEWLRKKLQDVHNF-NH2 [D6 bPTH(7-34) dTrp12 ACPC7] | 4.38 | – |
| CSCC[C@H](NC(=O)[C@H]1CCC[C@@H]1NC(=O)[C@H](CCC(N)=O)NC(=O)[C@H]1CCC[C@@H]1NC(=O)[C@H](CCC(=O)O)NC(=O)C(C)(C)NC(=O)[C@@H](NC(=O)[C@H]1CCC[C@@H]1N)C(C)C)C(=O)N[C@@H](Cc1cnc[nH]1)C(=O)N[C@@H](CCC(N)=O)C(=O)N[C@@H](CCCCNC(=N)N)C(=O)N[C@@H](C)C(=O)N[C@@H](CCCCN)C(=O)N[C@H]1CCC[C@@H]1C(=O)N[C@@H](CC(C)C)C(=O)N[C@@H](CC(N)=O)C(=O)N[C@@H](CO)C(=O)N[C@H]1CCC[C@@H]1C(=O)N[C@@H](CCCNC(=N)N)C(=O)N[C@@H](CCCNC(=N)N)C(=O)N[C@H](C(=O)N[C@H]1CNC[C@@H]1C(=O)N[C@@H](Cc1c[nH]c2ccccc12)C(=O)N[C@@H](CC(C)C)C(=O)N[C@@H](CCCNC(=N)N)C(=O)N[C@H]1CNC[C@@H]1C(=O)N[C@@H](CCCCN)C(=O)N[C@@H](CC(C)C)C(=O)N[C@@H](CCC(N)=O)C(=O)N[C@H]1CCC[C@@H]1C(=O)N[C@H](C(=O)N[C@@H](Cc1cnc[nH]1)C(=O)N[C@@H](CC(N)=O)C(=O)N[C@H]1CCC[C@@H]1C(N)=O)C(C)C)C(C)C [M-X1,5,7-FcycD6, XVUEXQXMHQ^hRAKXLNSXRRVZWLRZKLQXVHNX--NH2] ({ACPC(1S,2S)}-V[Aib]E[X12]Q[X12]MHQ[hArg]AK[X12]LNS[X12]RRV[X13]WLR[X13]KLQ[X12]VHN-{NH(1S,2S-2-CONH2-cPent)}) | – | stability in simulated gastric fluid [1]: good stability |
| CC[C@H](C)[C@H](NC(=O)[C@H](CCC(=O)O)NC(=O)[C@H](C)NC(=O)[C@@H](NC(=O)[C@H](C)N)C(C)C)C(=O)N[C@@H](CCC(N)=O)C(=O)N[C@@H](CC(C)C)C(=O)N[C@@H](CCSC)C(=O)N[C@@H](Cc1cnc[nH]1)C(=O)N[C@@H](CCC(N)=O)C(=O)N[C@@H](CCCCNC(=N)N)C(=O)N[C@@H](C)C(=O)N[C@@H](CCCCN)C(=O)N[C@@H](Cc1c[nH]c2ccccc12)C(=O)N[C@@H](CC(C)C)C(=O)N[C@@H](CC(N)=O)C(=O)N[C@@H](CO)C(=O)N[C@@H](CCSC)C(=O)N[C@@H](CCCNC(=N)N)C(=O)N[C@@H](CCCNC(=N)N)C(=O)N[C@H](C(=O)N[C@@H](CCC(=O)O)C(=O)N[C@@H](Cc1c[nH]c2ccccc12)C(=O)N[C@@H](CC(C)C)C(=O)N[C@@H](CCCNC(=N)N)C(=O)N[C@@H](CCCCN)C(=O)N[C@@H](CCCCN)C(=O)N[C@@H](CC(C)C)C(=O)N[C@@H](CCC(N)=O)C(=O)N[C@@H](CC(=O)O)C(=O)N[C@H](C(=O)N[C@@H](Cc1cnc[nH]1)C(=O)N[C@@H](CC(N)=O)C(=O)N[C@@H](Cc1ccccc1)C(N)=O)C(C)C)C(C)C [M-PTH(1-34)] (H-AVAEIQLMHQ[hArg]AKWLNSMRRVEWLRKKLQDVHNF-NH2) | – | bioavailability (previously shown) [2]: native-like bioavailability |
| CC[C@H](C)[C@H](NC(=O)[C@H](CCC(=O)O)NC(=O)[C@H](CO)NC(=O)[C@@H](NC(=O)[C@@H](N)CO)C(C)C)C(=O)N[C@@H](CCC(N)=O)C(=O)N[C@@H](CC(C)C)C(=O)N[C@@H](CCSC)C(=O)N[C@@H](Cc1c[nH]cn1)C(=O)N[C@@H](CC(N)=O)C(=O)N[C@@H](CC(C)C)C(=O)NCC(=O)N[C@@H](CCCCN)C(=O)N[C@H]1CCC[C@@H]1C(=O)N[C@@H](CC(C)C)C(=O)N[C@@H](CC(N)=O)C(=O)N[C@@H](CO)C(=O)N[C@H]1CCC[C@@H]1C(=O)N[C@@H](CCC(=O)O)C(=O)N[C@@H](CCCNC(=N)N)C(=O)N[C@H](C(=O)N[C@H]1CNC[C@@H]1C(=O)N[C@@H](Cc1c[nH]c2ccccc12)C(=O)N[C@@H](CC(C)C)C(=O)N[C@@H](CCCNC(=N)N)C(=O)N[C@H]1CNC[C@@H]1C(=O)N[C@@H](CCCCN)C(=O)N[C@@H](CC(C)C)C(=O)N[C@@H](CCC(N)=O)C(=O)N[C@H]1CCC[C@@H]1C(=O)N[C@H](C(=O)N[C@@H](Cc1c[nH]cn1)C(=O)N[C@@H](CC(N)=O)C(=O)N[C@H]1CCC[C@@H]1C(N)=O)C(C)C)C(C)C [FcycD6, SVSEIQLMHNLGKXLNSXERVZWLRZKLQXVHNX-NH2] (H-SVSEIQLMHNLGK[X12]LNS[X12]ERV[X13]WLR[X13]KLQ[X12]VHN-{NH(1S,2S-2-CONH2-cPent)}; N-terminus assumed) | – | calcemic response (blood Ca^2+ concentration) [3]: very marked activity to increase calcium blood levels; Fold PTH (PTHR): 3.2; EC50 (PTHR; read-out: EC50, nM (cAMP induction potency)): 0.26 ± 0.05 nM |
| XMHNLWKXLSSXERVZWLRZKLQXVHNX-NH2 [FCycD6 bPTH(7-34) dTrp12 ACPC7] | 3.50 | – |
